# Test results reported in patent publication US8324202B2, “5-phenyl-1H-benzo [E] [1,4] diazepine compounds substituted with an hydroxamic acid group as histone deacetylase inhibitors” (Universita Degli Studi di Firenze, priority 2007, dated 2012).
# Tests used:
# Format in all cases: cell-based, human
# acetylated H3 histone = experiment: Histone deacetylase inhibition: western blot for acetylated histone H3 in cells incubated 6 hours with drug; conditions: for Acetyl-H3 densitometric value: 6 hours, untreated = 1; for H3 histone acetylating activity, in words: summary in description
# Method: (§1) The new described compounds were tested for their ability to inhibit the histone deacetylase activity by western blot for the acetylated isoforms of histone H3 and H4 and also to induce growth arrest in cancer cells by activating apoptosis and/or cell differentiation. Initially, biological activities of newly synthesized HDACi were assessed by using the human acute promyelocytic leukemia cell line NB4, as the experimental model. Cells were maintained in RPMI (Bio-Whittaker Europe, Verviers, Belgio) supplemented with 10% of fetal calf serum (FCS, Boehringer Mannheim, Germania) and 2 mM glutamine (Merck, Darmstadt, Germania) at 37° C. in a humidified atmosphere of 5% CO2. Cells were counted in a Burker chamber and cells viability was assessed by the trypan blu exclusion test.
# (§2) Cells, obtained as described above, were harvested in sterile plates (Falcon, Becton Dickinson, Franklin Lakes, N.J.) at density of 6×10^5/mL, and incubated for 6 hours with increasing drug concentration of single compounds. Then, the cells were lysated with RIPA buffer (50 mM Tris-HCl pH 7.4, 150 mM NaCl, 1% Nonidet P-40, 1 mM EDTA plus protease inhibitor cocktail (Protease Inhibitor Cocktail Set III, n° cat. 539134, Calbiochem, Merck, Darmstadt, Germany) and sonicated (Labsonic 1510) twice for 15s pulses at 1-2 Watts in ice. Protein concentration of cell extracts was determined according to the bicinchoninic acid colorimetric method (BCA, Pierce, Rockford, USA) by using serum bovine albumin as the standard (BSA, Sigma, Steinheim, Germania). Equal amounts of protein (20-40 μg/20-30 μL/well) were separated on NuPAGE Bis-Tris 12% gel (Novex, Invitrogen, Carlsbad, Calif.) 10% and transferred to nitrocellulose membranes (Pro-Bind, pore diameter=0.45 μm; Amersham Pharmacia). Then membranes, incubated in phosphate buffer saline (PBS) with 6% defatted dry milk as blocking solution to saturate unspecific binding sites, were probed overnight at 4° C. with primary antibodies (1;1000 dilution in PBS) raised against acetylated H4 a H3 histone isoforms (Upstate Technologies, Lake Placid, N.Y., USA). […] The experiment was performed with the compound (II) S form, where R1 and R2 can be independently a methyl group or hydrogen.
# acetylated H4 histone = experiment: Histone deacetylase inhibition: western blot for acetylated histone H4 in cells incubated 6 hours with drug; conditions: for Acetyl-H4 densitometric value: 6 hours, untreated = 0; for H4 histone acetylating activity, in words: summary in description
# Method: as §1, §2
# NB4 cells [1] = experiment: Cytostatic and apoptotic activity, Annexin-V-FLUOS/propidium iodide flow cytometry, 48 hours; conditions: for IC50: Homo sapiens, NB-4, 48 hours, graphic extrapolation of Annexin-V results, viable cells over control, read-out: IC50 (drug concentration reducing cell density or viability by 50%); for apoptotic activity, in words: leukemic cells, summary in description
# Method: as §1
# Cells, were initially harvested at 4×10^5/mL (3 mL/well) cell density 24 well plate and incubated for 48 hours with increasing drug concentration. All compounds were solubilized in DMSO so that the final concentration of vehicle in culture was lower than 0.1%. At the end of treatment cell viability and apoptosis were evaluated by cytofluorimetric analysis using Anexin-V-Fluos staining (Annexin-V-FLUOS Staining Kit, Roche Molecular Biochemicals, Mannheim, Germany).
# Necrotic cells, which are also Annexin-V positive, were identified by using Propidium iodide fluorochrome, that is capable of penetrating cell membranes of dying or dead cells and binding DNA.
# Briefly, aliquots of cell suspensions (approximately 10^5 cells) washed in buffer PBS, were resuspended in 5 μl of binding buffer containing annexin V-fluorescein isothiocyanate (FITC) and propidium iodide; incubation was carried out for 15 minutes at room temperature, and cells were then analyzed by flow cytometry (FACScan Becton-Dickinson, San Jose, Calif.).
# The IC50 values (i.e. the drug concentration necessary to reduce cell density or viability by 50% as compared to untreated control cultures) obtained by graphic extrapolation of the Anexin-V results and expressed as percentage of viable cells over control were reported In Table 2.
# Data represent the percentage of viable cells as the function of drug concentration.
# NB4 cells [2] = experiment: Granulocytic differentiation, NBT reduction assay, alone or with ATRA; conditions: three days
# Method: The analysis of functional myeloid differentiation induced by compounds of the invention was accomplished by Nitro-Blu tetrazolium (NBT) reduction assay as described below. Cell suspension (approximately 10^5/mL) were incubated in the presence of 0.25 mg/mL NBT and 500 ng of PMA (Phorbol-12-Myristate 13-acetate) (Sigma) at 37° C. for 30 minutes. Granulocyte or monocyte differentiated cell were capable of reducing NBT to dark formazan precipitate (blu positive cells). NBT positive cells were counted on Burker chamber and expressed as percentage of total cell population.
# (§3) • Compounds (II) in racemic form and enantiomers S or R. • Compounds (III) in racemic form and enantiomers S or R. • Compounds (II) with R1 and R2=hydrogen were tested for their capability to synergize with ATRA and for their ability to induce granulocyte differentiation in the human promyelocytic cell line NB4. ATRA at the final concentration of 1 μM is usually employed to induce granulocyte differentiation in NB4 cells.
# (§4) NB4 cells were incubated for three days in presence of the compounds listed above, alone or in combination with ATRA. Granulocyte differentiation of leukemic cells was determined by (a) Nitro-Blu tetrazolium (NBT) reduction to dark formazan precipitate (blu positive cells) counting NBT positive cells on Burker chamber and (b) cytofluorimetric analysis of CD11b membrane expression (granulocyte marker, see example 32).
# NB4 cells [3] = experiment: Granulocytic differentiation, cytofluorimetric analysis of CD11b membrane expression, alone or with ATRA; conditions: for % of CD11b+ cells: three days; for effect on CD11b positive cells, in words: alone or in combination with 20 nM ATRA
# Method: Identification of markers of myeloid maturation was determined by flow cytometry by labelling cells with PE-conjugated antibody and FITC-conjugated antibody to CD11b (granulocyte marker) and CD14 (monocyte marker) respectively (Becton-Dickinson). Cell suspension aliquots (1×10^5 cells) were washed with cell wash buffer (Becton-Dickinson) and incubated with antibodies for 30 minutes in ice. After the incubation cells, resuspended in 0.3 mL of buffer containing Actinomycin D (Becton-Dickinson) to evaluate cell viability, were submitted to the cytofluorimetric analysis (FACScan, Becton-Dickinson). Cells incubated with appropriately labeled isotype controls were used to gate nonspecific fluorescence signal.
# as §3, §4
# NB4 cells [4] = experiment: Morphologic evaluation of apoptosis, May-Grünwald-Giemsa stained cytosmears; conditions: FIG. 1 panel C, magnification ×650
# Method: Cells were fixed with acid acetic/methanol (⅓, v/v), then 20 μL of fixed cell suspension were placed on glass slide and let dry for 24 h. The cytosmears were stained with May-Grünwald-Giemsa and apoptotic cells were identified according to the typical morphologic parameters such as nuclear fragmentation, reduction of cell volume and apoptotic bodies. Image analyses were obtained by using a Nikon Eclipse 50i microscope equipped with a Nikon Digital Sight DS -5M (Nikon Corporation, Tokyo, Japan).
structure (smiles),measurement,setting,value
"CN1C(=O)CN=C(c2ccccc2)c2cc(C#CCCCC(=O)NO)ccc21 [Compound (II) R1 and R2 = hydrogen, 6-(1-methyl-2-oxo-5-phenyl-2,3-dihydro-1H-benzo[e][1,4]diazepin-7-yl)-N-hydroxyhex-5-ynamide]",Acetyl-H3 densitometric value,acetylated H3 histone; 0.5 μM,2.26 arbitrary units
same,Acetyl-H3 densitometric value,acetylated H3 histone; 1 μM,2.41 arbitrary units
same,Acetyl-H3 densitometric value,acetylated H3 histone; 2.5 μM,2.836 arbitrary units
same,Acetyl-H4 densitometric value,acetylated H4 histone; 0.5 μM,1.3 arbitrary units
same,Acetyl-H4 densitometric value,acetylated H4 histone; 1 μM,1.8 arbitrary units
same,Acetyl-H4 densitometric value,acetylated H4 histone; 2.5 μM,4 arbitrary units
same,"H4 histone acetylating activity, in words",acetylated H4 histone,good H4 histone acetylating activity
same,IC50,NB4 cells [1],4.9 µM
same,"apoptotic activity, in words",NB4 cells [1],excellent apoptotic activity
same,% of NBT+ cells,NB4 cells [2]; 1.5 μM compound + 20 nM ATRA,45%
same,% of NBT+ cells,NB4 cells [2]; 1.5 μM compound alone,2%
same,% of NBT+ cells,NB4 cells [2]; 3 μM compound + 20 nM ATRA,80%
same,% of NBT+ cells,NB4 cells [2]; 3 μM compound alone,3%
same,% of CD11b+ cells,NB4 cells [3]; 1.5 μM compound + 20 nM ATRA,74.3%
same,% of CD11b+ cells,NB4 cells [3]; 1.5 μM compound alone,44%
same,% of CD11b+ cells,NB4 cells [3]; 3 μM compound + 20 nM ATRA,94.7%
same,% of CD11b+ cells,NB4 cells [3]; 3 μM compound alone,69.3%
same,"effect on CD11b positive cells, in words",NB4 cells [3],significant and dose-dependent increase in the amount of CD11b positive cells
"C[C@@H]1N=C(c2ccccc2)c2cc(C#CCCCC(=O)NO)ccc2N(C)C1=O [Compound (II) S form with R1 or R2 = Me, (S)-6-(1,3-dimethyl-2-oxo-5-phenyl-2,3-dihydro-1H-benzo[e][1,4]diazepin-7-yl)-N-hydroxyhex-5-ynamide]",Acetyl-H3 densitometric value,acetylated H3 histone; 0.5 μM,2.88 arbitrary units
same,Acetyl-H3 densitometric value,acetylated H3 histone; 1 μM,3.85 arbitrary units
same,Acetyl-H3 densitometric value,acetylated H3 histone; 2.5 μM,5.23 arbitrary units
same,"H3 histone acetylating activity, in words",acetylated H3 histone,good activity to induce H3 histone acetylation in a dose-dependent way
same,Acetyl-H4 densitometric value,acetylated H4 histone; 0.5 μM,1 arbitrary units
same,Acetyl-H4 densitometric value,acetylated H4 histone; 1 μM,1.33 arbitrary units
same,Acetyl-H4 densitometric value,acetylated H4 histone; 2.5 μM,12.96 arbitrary units
same,"H4 histone acetylating activity, in words",acetylated H4 histone,"facilitating, in its enantiomerically pure (S) form, H4 histone acetylation"
same,IC50,NB4 cells [1],1.7 µM
same,% of NBT+ cells,NB4 cells [2]; 1.5 μM compound + 20 nM ATRA,41%
same,% of NBT+ cells,NB4 cells [2]; 1.5 μM compound alone,≦1%
same,% of CD11b+ cells,NB4 cells [3]; 1.5 μM compound + 20 nM ATRA,62.3%
same,% of CD11b+ cells,NB4 cells [3]; 1.5 μM compound alone,36.3%
same,morphology of treated cells (apoptosis),NB4 cells [4],massive nuclear fragmentation suggestive of a typical apoptotic process
"C[C@H]1N=C(c2ccccc2)c2cc(NC(=O)CCCCCCC(=O)NO)ccc2N(C)C1=O [Compound (III) R form with R1 or R2 = Me, (R)—N1-(1,3-dimethyl-2-oxo-5-phenyl-2,3-dihydro-1H-benzo[e][1,4]diazepin-7-yl)-N8-hydroxyoctanediamide]",Acetyl-H3 densitometric value,acetylated H3 histone; 1 μM,4.46 arbitrary units
same,Acetyl-H3 densitometric value,acetylated H3 histone; 2 μM,6.85 arbitrary units
same,Acetyl-H3 densitometric value,acetylated H3 histone; 5 μM,7.27 arbitrary units
same,"H3 histone acetylating activity, in words",acetylated H3 histone,good H3 histone acetylating activity
same,Acetyl-H4 densitometric value,acetylated H4 histone; 1 μM,17.78 arbitrary units
same,Acetyl-H4 densitometric value,acetylated H4 histone; 2 μM,29.63 arbitrary units
same,Acetyl-H4 densitometric value,acetylated H4 histone; 5 μM,34.07 arbitrary units
same,"H4 histone acetylating activity, in words",acetylated H4 histone,excellent H4 histone acetylating activity
same,IC50,NB4 cells [1],3.7 µM
same,"apoptotic activity, in words",NB4 cells [1],high apoptotic activity
same,% of NBT+ cells,NB4 cells [2]; 3 μM compound + 20 nM ATRA,70%
same,% of NBT+ cells,NB4 cells [2]; 3 μM compound alone,3%
same,% of CD11b+ cells,NB4 cells [3]; 3 μM compound + 20 nM ATRA,80%
same,% of CD11b+ cells,NB4 cells [3]; 3 μM compound alone,39.3%
same,"effect on CD11b positive cells, in words",NB4 cells [3],augmented the percentage of CD11b positive cells
